In patent publication US20040028616A1, “Inhibition of lung metastases by aerosol delivery of p53 gene and anti-cancer compounds” (priority 2002, published 2004):

How the values were obtained:
[1] = test system: B16-F10 lung metastases; assay: In vivo effect of aerosol PEI-p53 and 9NC-DLPC on established B16-F10 lung metastases; design: species or system C57BL/6 mice; conditions: lower dose, agent alone
Method: C57BL/6 mice (7-8 weeks old, Harlan Sprague Dawley, Houston, Tex.) were injected via the tail vein with 25,000 B16-F10 cells on day 0. […] Animals in the single agent therapy group were administered p53 one time weekly or 9-nitrocamptothecin twice weekly.
The dosage for treatment was 2 mg plasmid/10 ml of aerosolized solution at a PEI:DNA (N:P) ratio of 10:1 for DNA, and 5 mg 9-nitrocamptothecin at a concentration of 0.5 mg/ml at a 9 nitrocamptothecin:dilauroylphosphatidylcholine weight ratio of 1:50. Aerosol delivery of drugs and genes was performed using 5% CO2-in-air for increased pulmonary deposition. On day 25-post tumor inoculation, the mice were sacrificed, lungs were fixed and the tumor index was calculated.
Tumor index was calculated by the formula: Tumor index=lung weights×average grade for the group. […] The growth of tumor contiguous to the lung was considered as a part of the lung for weighing the lungs. Values are mean+SD (n=10 mice per group).

[2] = test system: B16-F10 lung metastases; assay: Survival of B16-F10 challenged mice with PEI-p53/9NC-DLPC aerosol treatment; assay type: in vivo, C57BL/6 mice; conditions: aerosol treatment from day 11 for two weeks; n=10 mice per group
Method: C57BL/6 mice (n=10 mice per group) were injected via the tail vein with 25,000 B16-F10 cells on day 0 and the tumor was allowed to establish until day 10. The mice were then left untreated; or exposed to PEI-p53 aerosol complexes, to 9-nitrocamptothecin alone or to a sequential combination of p53 and 9-nitrocamptothecin, or 9-nitrocamptothecin and Neobam combination starting day 11 after tumor cell injection. Neobam was used as a negative control. The dosage was twice a week for drug or gene alone; and in combination once a week for gene and, twice a week for drug therapy. The mice were treated for two weeks, and then monitored over time for their survival.

[3] = test system: B16-F10 cells; assay: In vitro effect of p53 gene and 9NC on B16-F10 cell proliferation (hematocytometer cell count); assay type: cell-based; conditions: drug >0.5 mg/ml; data not shown
Method: B16-F10 cells grown in tissue culture plates (20,000 cells/well in a 48 well plate; […] cells/well in a 12 well plate) are transfected with PEI-DNA complexes (1 μg/ml; p53 or control empty plasmid, Neo) for 24 hours. […] The proliferation of B16-F10 cells 24 hours later was evaluated using the hematocytometer. To count the cells, the cell layer was washed with PBS and then trypsinized with 0.25% trypsin. The Alamar Blue Assay (Trek Diagnostic Systems, Inc) was also performed to test the viability of the cells (data not shown).
Control groups included cells treated with the genes (p53 and Neobam) alone, or with the drug (9-nitrocamptothecin) alone, or with Neobam and 9-nitrocamptothecin in combination. […] The p53 expression levels in parental and p53 treated B16-F10 cells have been reported previously (8).

CC[C@@]1(O)C(=O)OCc2c1cc1n(c2=O)Cc2cc3c([N+](=O)[O-])cccc3nc2-1 [9-nitrocamptothecin]
suppression of metastatic growth or increase of survival by single agent [1]: neither the p53 nor the 9-nitrocamptothecin alone is potent enough
mean survival time [2]: 29 ± 3 days
inhibition of B16-F10 as single agent, increased drug concentration [3]: very potent inhibition
